Experimental data as given in patent US20160106692A1 (priority 2014, published 2016).
“Also recorded” adds a separate entry of the source.

Key:
[1] = tested on: Influenza Virus A/California/07/2009 H1N1; format: cell-based
[2] = tested on: Influenza Virus A/Maryland/04/2011 H1N1; format: cell-based

CCOC(=O)C1=C[C@@H](OC(CC)CC)[C@H](NC(C)=O)[C@@H](N)C1 [Oseltamivir]
plaque inhibition, result in words [1]: sensitive to this drug to 1 μM; also recorded: showed inhibitory effects
plaque inhibition, result in words [2]: only partially sensitive; also recorded: reduced oseltamivir susceptibility
